Results from ChEMBL document CHEMBL5154737, “Semisynthesis and biological evaluation of (+)-sclerotiorin derivatives as antitumor agents for the treatment of hepatocellular carcinoma” (Eur J Med Chem, 2022).
The source made the active and inactive calls. The rule behind the calls is not given here.

Columns and labels:
[1] = system: Bel-7402; experiment: Antitumor activity against human Bel-7402 cells xenografted in BALB/c nude mouse assessed as reduction in tumor growth at 20 mg/kg, ip qd measured every 2 days for 14 days; assay type: functional, organism-based; settings: time 14.0 day
[2] = Toxicity in ICR mouse assessed as change in red blood cell volume distribution width at 100 mg/kg, ip qd (reference value: 16.6 %); assay type: organism-based; settings: in vivo
[3] = system: Bel-7402; experiment: Induction of apoptosis in human Bel-7402 cells assessed as dead cells at 0.625 uM incubated for 24 hrs by Annexin V and dead cell assay kit (reference value: 0.80 %); assay type: functional
[4] = system: Bel-7402; experiment: Induction of apoptosis in human Bel-7402 cells assessed as viable cells at 5 uM incubated for 24 hrs by Annexin V and dead cell assay kit (reference value: 91.00%); assay type: functional; settings: read-out: Activity
[5] = system: Bel-7402; experiment: Induction of apoptosis in human Bel-7402 cells assessed as late apoptotic cells at 0.313 uM incubated for 24 hrs by Annexin V and dead cell assay kit (reference value: 4.45 %); assay type: functional
[6] = Toxicity in ICR mouse assessed as change in mean corpuscular hemoglobin concentration at 100 mg/kg, ip qd (reference value: 343 g/L); assay type: organism-based; settings: in vivo
[7] = Toxicity in ICR mouse assessed as change in monocyte count at 100 mg/kg, ip qd (reference value: 0.1 10^9/L); assay type: organism-based; settings: in vivo
[8] = system: Bel-7402; experiment: Induction of apoptosis in human Bel-7402 cells assessed as necrotic cells at 2.5 uM incubated for 24 hrs by Annexin V and Dead cell kit assay (reference value: 1.6 %); assay type: functional
[9] = system: Bel-7402; experiment: Induction of apoptosis in human Bel-7402 cells assessed as early apoptotic cells at 2.5 uM incubated for 24 hrs by Annexin V and Dead cell kit assay (reference value: 3.7 %); assay type: functional
[10] = system: Bel-7402; experiment: Induction of apoptosis in human Bel-7402 cells assessed as increase in cleaved caspase-9 upto 2.5 uM incubated for 24 hrs by Western blot analysis; assay type: functional, cell-based
[11] = system: Bel-7402; experiment: Induction of apoptosis in human Bel-7402 cells assessed as increase in cleaved caspase-3 upto 2.5 uM incubated for 24 hrs by Western blot analysis; assay type: functional, cell-based
[12] = Sub-chronic toxicity in ICR mouse assessed as change in amount of food intake at 100 mg/kg/day, ip for 26 days; assay type: organism-based; settings: in vivo, 624 h, time 26 day
[13] = system: Bel-7402; experiment: Induction of apoptosis in human Bel-7402 cells assessed as early apoptotic cells at 1.25 uM incubated for 24 hrs by Annexin V and dead cell assay kit (reference value: 3.75 %); assay type: functional
[14] = system: Bel-7402; experiment: Effect on ERK signalling pathway in human Bel-7402 cells assessed as increase in phosphorylated-ERK level upto 2.5 uM incubated for 24 hrs by Western blot analysis; assay type: functional, cell-based
[15] = Chronic toxicity in ICR mouse assessed as effect on spleen morphology at 100 mg/kg, ip qd measured after 26 days by H and E staining method; assay type: organism-based; settings: in vivo, 624 h, time 26 day
[16] = system: Bel-7402; experiment: Antitumor activity against human Bel-7402 cells xenografted in BALB/c nude mouse assessed as tumor growth inhibition at 10 mg/kg, ip bid measured every 2 days for 14 days relative to control; assay type: functional; settings: Bel-7402, 336 h, time 14 day, read-out: TGI
[17] = system: Bel-7402; experiment: Induction of ERK degradation in human Bel-7402 cells at 2.5 uM incubated for 24 hrs in presence of Z-vad-fmk by Western blot analysis; assay type: cell-based
[18] = system: Bel-7402; experiment: Induction of apoptosis in human Bel-7402 cells assessed as increase in cleaved PARP upto 2.5 uM incubated for 24 hrs by Western blot analysis; assay type: functional, cell-based
[19] = system: Bel-7402; experiment: Induction of apoptosis in human Bel-7402 cells assessed as dead cells at 5 uM incubated for 24 hrs by Annexin V and dead cell assay kit (reference value: 0.80 %); assay type: functional
[20] = Cmax in Sprague-Dawley rat at 20 mg/kg, ip measured for 0.03 to 24 hrs by UPLC-MS analysis; assay type: ADME, organism-based; design: time lower 0.03 hrs, dose 20 mg/kg, time upper 24 hrs, route ip; settings: in vivo
[21] = system: Bel-7402; experiment: Induction of caspase dependent apoptosis in human Bel-7402 cells assessed as reduction in cell proliferation inhibition upto 10 uM incubated for 24 hrs in presence of Z-vad-fmk by MTT assay; assay type: functional, cell-based
[22] = system: Bel-7402; experiment: Induction of apoptosis in human Bel-7402 cells assessed as necrotic cells at 2.5 uM incubated for 24 hrs in presence of U0126 by Annexin V and Dead cell kit assay (reference value: 1.6 %); assay type: functional
[23] = system: Bel-7402; experiment: Upregulation of total protein ubiquitination level in human Bel-7402 cells by Western blot analysis; assay type: functional, cell-based; settings: dose <= 10.0 µM, DDE = dose-dependent effect
[24] = Toxicity in BALB/c nude mouse xenografted with Bel-7402 cells assessed as change in body weight at 20 mg/kg, ip qd measured every 2 days for 14 days; assay type: organism-based; settings: in vivo, 336 h, time 14 day
[25] = Toxicity in ICR mouse assessed as change in platelet distribution width at 100 mg/kg, ip qd (reference value: 16.7); assay type: organism-based; settings: in vivo

In the case of `CC[C@H](C)/C=C(C)/C=C/C1=CC2=C(Cl)C(=O)[C@](C)(O)C(=O)C2=CN1Cc1ccc(OC(F)(F)F)cc1`, the TGI [1] was “Active”, the Activity [2] was 13.5% and the Activity [3] was 0.6%. For the same compound, the viability at 5 µM [4] was 8.2%, the Activity [5] was 1.6% and the Activity [6] was 306 g/L. For the same compound, the Activity [7] was 0.3 10^9/L, the Activity [8] was 11.15% and the Activity [9] was 25.8%. The Activity [10] was “Active”, the Activity [11] was “Active” and the Activity [12] was “Non-Toxic”. For the same compound, the Activity [13] was 5.1%, the Activity [14] was “Active” and the Activity [15] was “Non-Toxic”. The inhibition in vivo at 10 mg/kg [16] was 34.6%, the Activity [17] was “Active” and the Activity [18] was “Active”. For the same compound, the Activity [19] was 8.15%, the Cmax [20] was 5590 ng/mL and the Activity [21] was “Active”. The Activity [22] was 7.75%, the Activity [23] was “Dde” and the Activity [24] was “Non-Toxic”. For the same compound, the Activity [25] was 18.3.
